Experimental findings from patent US11891628B2, “Method for biomimetic culture of urothelial cells and uses thereof” (China Medical University, priority 2018, dated 2024) are described below.

Assay [1] relates to BBN-induced bladder tumor. The assay can be described thus: BBN-induced bladder tumor mouse model. The assay is classed as in vivo, mice. On the procedure: FIG. 9. […] Tumor-bearing mice were treated according to the experimental scheme (A). Representative photographs of the gross tumors from mice with different treatments (B). Tumor weights of the different treatment groups (C) (mean±SD, at least 9 mice from 3 independent experiments). Representative H&E stained images of tumors of different treatment groups (D). Histograms of the pathological analysis for the proportions of hyperplastic and neoplastic changes in bladder H&E stained section of mice with different treatments (E). *p<0.05; **p<0.01 by Student's t test.
For BBN-induced bladder tumor formation, a 0.05% concentration of BBN (TCI America, Portland, OR) was dissolved in drinking water, and BBN-containing water in a dark bottle was provided to 8-10 week old female C57BL/6 mice ad libitum for 10-20 weeks until hematuria score is over 2+ (Arkray Aution Sticks urine strip) as a sign of bladder tumor formation. […]
To test the anti-tumor effects of intravesical xenogeneic cell therapy in combination with chemotherapeutic agents in delaying tumor progression, BBN-induced tumor mouse model, which simulates the human bladder tumorigenesis from hyperplasia, carcinoma in situ (CIS) to invasive carcinoma was used. […] The progression of BBN-induced bladder tumors in the treatment groups and control group was assessed by macroscopic and histopathological examination from harvested bladders. […]

Assay [2] has as its system MBT-2-luc orthotopic graft bladder tumor. Description: Orthotopic MBT-2-luc graft bladder tumor mouse model.
Protocol: The tumor bearing mice were enrolled when tumor bioluminescent signal reached 10^5 total plex and treated according to the treatment scheme (A).
Tumors from mice of different treatment groups were harvested, processed and sectioned for tumor cell Ki-67 IHC and TUNEL assay. Tumor sections were evaluated for cell proliferation 45 with Ki-67 IHC staining (A). Ki-67 positive cells on tumor sections were counted and quantified from mice of 3 independent experiments (B). Tumor sections were stained with TUNEL (FITC) and observed under a fluorescent microscope (C). DAPI was used for nuclear staining. TUNEL positive cells on tumor sections were counted and quantified from mice of 3 independent experiments (D). Values are expressed as mean±standard error of the mean (n=3). *p<0.05; **p<0.01; ***p<0.001, by Student's t test. Scale bar, 50 μm.
Tumors from mice given different treatments were analyzed by IHC for lymphocyte and NK cell infiltration. Representative images of anti-CD4 (A), CD8 (B) and NKG2D (C) IHC staining on tumor sections. Quantification of CD4+ T lymphocytes (D), CD8+T lymphocytes (E) and NKG2D+ NK cells (F) in tumors for each treatment group by counting the positive cells in four randomly selected HPFs among 3 mice in each group, and data were expressed as the means±SD. Error bars represent SD. *p<0.05; **p<0.01; ***p<0.001, by Student's t test.
Female C3H/HeJ 9-week-old mice were used to establish the intramural orthotopic model. MBT-2 murine urothelial carcinoma cells stably expressing luciferase gene (MBT-2-luc) were intramuscularly injected to mouse bladder walls and capture tumor imaged by Xenogen IVIS 200 once per week. The mice are divided control and experiment groups when tumors are reached around 1×10^5 p/s total flux in bioluminescence imaging. The tumor bearing mice were divided into 4 treatment groups: (i). Vehicle control, (ii). Xenogeneic urothelial cell: intravesical of instillation xenogeneic urothelial cells (1×10^6 cells), once a week, day 3 for 4 weeks, (iii). […] A 24-gauge catheter is introduced into the lumen of the bladder through the urethra. Xenogeneic urothelial cells, 1×10^6 in a 100 μl suspension is then injected into the bladder. To prevent voiding of the xenogeneic urothelial cells, the catheter is held in place for at least 40 minutes with the injection syringe attached. The catheter is removed before the mouse recovered from anesthesia. The responses of mice are analyzed on BLI total flux intensity changes from the baseline.
Setting [3] is: IHC on tumor sections, vs vehicle.

Turning to Gemcitabine plus cisplatin [GC], the tumor weight entry in assay [1] (harvested bladders after 4 weeks treatment) is “significantly reduced”. In addition, in assay [1] (histopathological analysis of H&E sections), the “proportion of mice progressed to invasive carcinoma” value was “significantly lower”. For the same substance, in assay [2] (setting [3]), the “NKG2D+ NK cell infiltration in tumors” value is on record as “not observed”, the “tumor CD4+ T cell infiltration” value is “increased” and the “tumor CD8+ T cell infiltration” value is “increased”. For the same substance, the tumor growth entry in assay [2] (bioluminescence, vs vehicle-treated groups, 4 weeks treatment) was “significantly decreased”.
